Data published in US5712148A (Synaptic Pharmaceutical Corporation, priority 1995, dated 1998).
Several values for one entry are separate records, joined by “and”; a condition that tells them apart may be missing. Equal values may be shown once. Read-outs that look alike come from different tables or passages of the source.

How the values were obtained:
[1] = biological target: T1, hS1a (human betaine/GABA transporter, hBGT) (Homo sapiens, UniProt P48065); assay: Inhibition of specific [^3 H]GABA uptake in COS7 (transient) or LMtk- (stable; hS1a-3) cells expressing hS1a; format: cell-based; design: Translation of a long open reading frame predicts a protein of 614 amino acids with 12 putative transmembrane domains; expressed in transfected cells; settings: for inhibitory potency at hS1a in words: inhibition of [^3 H]GABA uptake; for inhibition at 100 µM / inhibition at 500 µM: read-out: % Inhibition of specific [^3 H]GABA uptake; for IC50: estimated from data for one or two concentrations of inhibitor (Table 1), not corrected for [^3 H]GABA concentration; for potency at hS1a vs dog and mouse transporters, in words: comparison across clones
T1 sequence (P48065 1-614 C10Y): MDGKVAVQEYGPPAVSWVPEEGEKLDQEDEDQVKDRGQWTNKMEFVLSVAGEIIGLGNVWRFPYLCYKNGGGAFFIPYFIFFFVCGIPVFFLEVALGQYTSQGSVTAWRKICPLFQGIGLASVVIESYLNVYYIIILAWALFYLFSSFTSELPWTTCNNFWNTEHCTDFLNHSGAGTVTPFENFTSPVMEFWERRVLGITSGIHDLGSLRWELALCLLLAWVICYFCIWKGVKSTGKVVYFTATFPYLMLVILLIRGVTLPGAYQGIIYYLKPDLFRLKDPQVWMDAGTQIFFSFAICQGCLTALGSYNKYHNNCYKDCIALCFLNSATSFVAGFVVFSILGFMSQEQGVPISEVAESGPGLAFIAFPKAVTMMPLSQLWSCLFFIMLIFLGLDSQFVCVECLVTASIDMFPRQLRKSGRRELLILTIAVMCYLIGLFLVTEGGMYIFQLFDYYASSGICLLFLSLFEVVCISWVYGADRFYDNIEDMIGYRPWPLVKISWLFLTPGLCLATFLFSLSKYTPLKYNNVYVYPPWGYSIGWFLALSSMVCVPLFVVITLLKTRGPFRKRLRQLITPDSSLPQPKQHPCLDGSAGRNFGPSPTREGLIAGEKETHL
Method: (§1) Transport was also measured in suspension. The details of this method will described in detail in a subsequent publication (Borden et al., manuscript in preparation). Briefly, transient (COS-7) or stable (LM) transfectants were removed from culture plates with trypsin/EDTA, and transferred to suspension culture. The cells were grown in a temperature-controlled shaking incubator, using a medium containing methylcellulose. To measure transport the cells were washed by centrifugation, and resuspended in HBS. The assay was performed in 96-well microtiter plates (total volume=0.25 ml/well). […] Cell-associated radioactivity retained on the filters was determined by scintillation counting.

[2] = biological target: T2, GAT-2 (Rattus norvegicus, UniProt P31646); assay: Affinity of GABA at GAT-2, suspension vs attached cells; format: cell-based; settings: Borden, unpublished
T2 sequence (P31646 1-602): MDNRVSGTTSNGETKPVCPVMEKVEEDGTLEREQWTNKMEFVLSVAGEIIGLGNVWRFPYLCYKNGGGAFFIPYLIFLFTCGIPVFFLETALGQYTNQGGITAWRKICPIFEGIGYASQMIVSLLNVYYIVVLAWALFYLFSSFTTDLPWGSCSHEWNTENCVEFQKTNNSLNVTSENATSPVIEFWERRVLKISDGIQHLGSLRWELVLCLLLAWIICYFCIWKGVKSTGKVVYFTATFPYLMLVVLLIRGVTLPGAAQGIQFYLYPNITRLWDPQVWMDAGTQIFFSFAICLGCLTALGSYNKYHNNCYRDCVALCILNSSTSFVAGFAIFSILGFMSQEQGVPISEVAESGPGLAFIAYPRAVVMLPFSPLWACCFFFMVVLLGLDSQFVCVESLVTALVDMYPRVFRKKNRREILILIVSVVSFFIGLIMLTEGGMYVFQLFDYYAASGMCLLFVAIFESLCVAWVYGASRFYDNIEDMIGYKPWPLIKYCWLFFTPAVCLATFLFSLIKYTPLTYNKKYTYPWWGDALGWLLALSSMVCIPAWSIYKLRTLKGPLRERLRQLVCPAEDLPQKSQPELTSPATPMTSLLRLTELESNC
Description: […]. […] Another important factor is our use of suspension cultures. […]. Liu et al., 1992a).

[3] = tested on: dog betaine/GABA transporter; settings: Yamauchi et al., 1992, cited from earlier work
[4] = biological target: T1, hS1a (human betaine/GABA transporter, hBGT); settings: in words
Method: as §1
(§2) For example, the dog and mouse clones were expressed in oocytes, whereas we employed COS-7 or LMtk^- fibroblasts for the human clone. Additionally, we measured transport for 10 minutes at 37° C., while the dog clone was assayed for 30 minutes at 25° C. […] Another important factor is our use of suspension cultures.

[5] = biological target: T3, GAT-3 (Rattus norvegicus, UniProt P31647); assay: Affinity of GABA at GAT-3, suspension vs attached cells; format: cell-based; settings: Borden, unpublished
T3 sequence (P31647 1-627): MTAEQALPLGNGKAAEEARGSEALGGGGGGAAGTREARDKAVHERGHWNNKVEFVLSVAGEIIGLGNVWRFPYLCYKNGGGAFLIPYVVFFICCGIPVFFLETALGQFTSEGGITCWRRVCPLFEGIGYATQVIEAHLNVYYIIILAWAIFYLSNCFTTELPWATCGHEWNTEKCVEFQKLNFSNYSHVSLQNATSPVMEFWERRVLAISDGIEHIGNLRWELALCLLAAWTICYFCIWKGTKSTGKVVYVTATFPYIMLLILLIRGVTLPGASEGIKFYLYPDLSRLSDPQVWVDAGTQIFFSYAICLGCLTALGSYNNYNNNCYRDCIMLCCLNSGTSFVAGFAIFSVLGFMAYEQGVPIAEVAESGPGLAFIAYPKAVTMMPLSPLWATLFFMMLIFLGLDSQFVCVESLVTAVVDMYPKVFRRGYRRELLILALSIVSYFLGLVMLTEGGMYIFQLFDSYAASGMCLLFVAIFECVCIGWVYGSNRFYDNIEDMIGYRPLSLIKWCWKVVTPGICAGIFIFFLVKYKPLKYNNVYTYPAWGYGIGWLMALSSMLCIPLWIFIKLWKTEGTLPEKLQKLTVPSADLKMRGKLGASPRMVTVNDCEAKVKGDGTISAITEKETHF
Method: as §2

[6] = tested on: mouse betaine/GABA transporter; settings: data from Lopez-Corcuera et al., 1992; estimated from one or two concentrations of inhibitor; cited from earlier work
[7] = tested on: dog betaine/GABA transporter; settings: data from Yamauchi et al., 1992; estimated from one or two concentrations of inhibitor; cited from earlier work
[8] = tested on: mouse betaine/GABA transporter; assay: Inhibition at mouse betaine/GABA transporter clone (literature comparison); format: cell-based; settings: comparison across clones
Method: as §2

| Molecule | inhibitory potency at hS1a in words [1] | inhibition at 100 µM [1] [%] | IC50 [6] [µM] | IC50 ([1]; read-out: IC50 (human)) | also measured |
| --- | --- | --- | --- | --- | --- |
| N[C@@H]1CCC[C@H](C(=O)O)C1 (relative stereo) [ACHC, cis-3-aminocyclohexanecarboxylic acid] | weak inhibitors | 0 | – | – | – |
| Cc1ccsc1C(=CCCN1CCC[C@@H](C(=O)O)C1)c1sccc1C [(R)-Tiagabine] | weak inhibitors | 12 ± 7 | – | – | – |
| NCCCC(=O)O [GABA, γ-aminobutyric acid] | – | – | – | – | increase in affinity of GABA in suspension vs attached cells (GAT-2) [2]: about 10 fold; higher affinity of the transporter for GABA than for betaine [3]: 4 fold; affinity for GABA vs betaine, in words ([3]; betaine transporter cloned from MDCK dog kidney cells): higher affinity for GABA than for betaine; affinity of hBGT for GABA vs other GABA transporters [4]: lower than that of other GABA transporters; increase in affinity of GABA in suspension vs attached cells (GAT-3) [5]: about 10 fold |
| NCC[C@H](N)C(=O)O [L-DABA, L-(2,4)diaminobutyric acid] | – | 24 ± 24 | – | – | – |
| C[N+](C)(C)CC(=O)O [betaine] | – | – | 206 | 258 µM and 150 to 250 µM | inhibition at 500 µM [1]: 66 ± 15% |
| O=C(O)C1=CCCNC1 [guvacine] | weak inhibitors | 5 ± 5 | 2800 | 1900 µM | – |
| O=C(O)C1CCCNC1 (centres unmarked) [nipecotic acid] | – | 34 ± 19 | – | – | IC50 [7]: 4700 µM; potency at hS1a vs dog and mouse transporters, in words [1]: more potent at hS1a than at either of the other two transporters |
| O=C(CCc1ccc(O)cc1)c1c(O)cc(O)cc1O [phloretin] | – | – | 37 | 258 µM | IC50 [7]: 200 µM; inhibition at 500 µM [1]: 66%; potency at mouse BGT vs dog or human clones, in words [8]: more potent at the mouse BGT than at the dog or human clones |
| C=C[C@H]1C[N@@]2CC[C@H]1C[C@@H]2[C@@H](O)c1ccnc2ccc(OC)cc12 [quinidine] | – | 92 | 49 | – | IC50 ([1]; IC50 (human)): 488 µM and ~50 µM; inhibition at 500 µM [1]: 85% |
| NCCC(=O)O [β-alanine] | – | 42 ± 22 | 1900 | 138 µM and 150 to 250 µM | IC50 [7]: 2400 µM; potency at hS1a vs dog and mouse transporters, in words [1]: more potent at hS1a than at either of the other two transporters |
| hydroxynipecotic acid [OH-nipecotic acid] | weak inhibitors | – | – | – | IC50 ([1]; 10 min, listed as Hydroxynipecotic acid, 10 min, read-out: IC50 (human)): > 1000 µM; IC50 ([1]; 10 min, read-out: IC50 (human)): 1150 µM; % Inhibition of specific [^3 H]GABA uptake ([1]; inhibitor 100 μM, 50 nM [^3 H]GABA, 10 minutes, 37° C., mean ± SEM): 8 ± 8% |
